Source: US20230085307A1, “PYRIDAZINONE COMPOUND AND HERBICIDE” (NISSAN CHEMICAL CORPORATION, priority 2019, published 2023)

tested on: late watergrass; assay: Test Example 1: herbicidal activity, application before weed generation under submerged conditions (Table 16, symbol A); format: in vivo, late watergrass (Echinochloa oryzicola); conditions: amount of applied herbicide 320 g/ha
Outline: (§1)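 Emulsion formulation, water-diluted to set dose, was put onto the flooded surface (4 cm depth, alluvial soil) the same day weeds were sown and 2.5-leaf rice transplanted. After 3 weeks at 25-30 °C under glass, each species was rated 0 (≤5% kill) to 5 (≥90% kill).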

Compound | Herbicidal effect, A: late watergrass
CCCOc1ccc2c(-c3c(O)c(C)nn(C)c3=O)c(-c3ccccc3OCC)sc2c1 [3-103] | 5 (Herbicidal rate of 90% or more (almost completely withered))
C=CCOc1ccc2c(-c3c(O)c(C)nn(C)c3=O)c(-c3ccccc3OC)sc2c1 [3-111] | 5 (Herbicidal rate of 90% or more (almost completely withered))

tested on: Japanese bulrush; assay: Test Example 1: herbicidal activity, application before weed generation under submerged conditions (Table 16, symbol B); format: in vivo, Japanese bulrush (Schoenoplectus juncoides); conditions: amount of applied herbicide 320 g/ha
Outline: as §1

Compound | Herbicidal effect, B: Japanese bulrush
CCCOc1ccc2c(-c3c(O)c(C)nn(C)c3=O)c(-c3ccccc3OCC)sc2c1 [3-103] | 5 (Herbicidal rate of 90% or more (almost completely withered))
C=CCOc1ccc2c(-c3c(O)c(C)nn(C)c3=O)c(-c3ccccc3OC)sc2c1 [3-111] | 5 (Herbicidal rate of 90% or more (almost completely withered))

tested on: oval-leafed pondweed; assay: Test Example 1: herbicidal activity, application before weed generation under submerged conditions (Table 16, symbol C); format: in vivo, oval-leafed pondweed (Monochoria vaginalis); conditions: amount of applied herbicide 320 g/ha
Outline: as §1

Compound | Herbicidal effect, C: oval-leafed pondweed
CCCOc1ccc2c(-c3c(O)c(C)nn(C)c3=O)c(-c3ccccc3OCC)sc2c1 [3-103] | 5 (Herbicidal rate of 90% or more (almost completely withered))
C=CCOc1ccc2c(-c3c(O)c(C)nn(C)c3=O)c(-c3ccccc3OC)sc2c1 [3-111] | 5 (Herbicidal rate of 90% or more (almost completely withered))

tested on: late watergrass; assay: Test Example 2: herbicidal activity, application during weed generation under submerged conditions (Table 17, symbol A); format: in vivo, late watergrass (Echinochloa oryzicola); conditions: AAH 320 g/ha; application during weed generation, submerged conditions
Outline: (§2)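 Steps: fill Wagner pots with alluvial soil; add water to give 4 cm depth; sow the species mixed; grow under glass at 25–30° C.; at 1–2 leaves apply water-diluted emulsion formulation to the water surface at a fixed herbicide amount; score after 3 weeks.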

Compound | herbicidal effect rating, A: late watergrass
CCCOc1ccc2c(-c3c(O)c(C)nn(C)c3=O)c(-c3ccccc3OCC)sc2c1 [3-103] | 2 (Herbicidal rate of 20% or more and less than 40%)
C=CCOc1ccc2c(-c3c(O)c(C)nn(C)c3=O)c(-c3ccccc3OC)sc2c1 [3-111] | 4 (Herbicidal rate of 70% or more and less than 90%)

tested on: oval-leafed pondweed; assay: Test Example 2: herbicidal activity, application during weed generation under submerged conditions (Table 17, symbol C); format: in vivo, oval-leafed pondweed (Monochoria vaginalis); conditions: AAH 320 g/ha; application during weed generation, submerged conditions
Outline: as §2

Compound | herbicidal effect rating, C: oval-leafed pondweed
CCCOc1ccc2c(-c3c(O)c(C)nn(C)c3=O)c(-c3ccccc3OCC)sc2c1 [3-103] | 3 (Herbicidal rate of 40% or more and less than 70%)
C=CCOc1ccc2c(-c3c(O)c(C)nn(C)c3=O)c(-c3ccccc3OC)sc2c1 [3-111] | 3 (Herbicidal rate of 40% or more and less than 70%)

tested on: barnyard grass; assay: Test Example 3: herbicidal effect by foliage application, Wagner pot (Table 18, symbol H); format: in vivo, barnyard grass (Echinochloa crus-galli); conditions: 320 g/ha
Outline: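 Plants were sown in alluvial soil held under 0.1–0.5 cm standing water and grown 14 days in a greenhouse at 25–30 °C. An emulsifiable formulation, water-diluted to the set dose, was then sprayed onto the foliage, and effects were scored three weeks later using previously defined criteria.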

Compound | herbicidal effect on barnyard grass (H)
CCCOc1ccc2c(-c3c(O)c(C)nn(C)c3=O)c(-c3ccccc3OCC)sc2c1 [3-103] | 4 (Herbicidal rate of 70% or more and less than 90%)
C=CCOc1ccc2c(-c3c(O)c(C)nn(C)c3=O)c(-c3ccccc3OC)sc2c1 [3-111] | 5 (Herbicidal rate of 90% or more (almost completely withered))

tested on: southern crabgrass; assay: Test Example 4: herbicidal effect by soil treatment (Table 19, symbol F); format: in vivo, southern crabgrass (Digitaria ciliaris); conditions: amount of applied herbicide 320 g/ha
Outline: (§3)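 Pre-emergence style soil spray: seeds under ~1.5 cm sterilized diluvial soil received a uniform coat of emulsion diluted to the predetermined herbicide amount. Greenhouse 25–30° C; readout at week three on previously defined criteria.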

Compound | F: southern crabgrass, herbicidal effect grade
CCCOc1ccc2c(-c3c(O)c(C)nn(C)c3=O)c(-c3ccccc3OCC)sc2c1 [3-103] | 5 (Herbicidal rate of 90% or more (almost completely withered))
C=CCOc1ccc2c(-c3c(O)c(C)nn(C)c3=O)c(-c3ccccc3OC)sc2c1 [3-111] | 5 (Herbicidal rate of 90% or more (almost completely withered))

tested on: wild oat; assay: Test Example 4: herbicidal effect by soil treatment (Table 19, symbol I); format: in vivo, wild oat (Avena fatua); conditions: amount of applied herbicide 320 g/ha
Outline: as §3

Compound | I: wild oat, herbicidal effect grade
CCCOc1ccc2c(-c3c(O)c(C)nn(C)c3=O)c(-c3ccccc3OCC)sc2c1 [3-103] | 0 (Herbicidal rate of 5% or less (almost no effect))
C=CCOc1ccc2c(-c3c(O)c(C)nn(C)c3=O)c(-c3ccccc3OC)sc2c1 [3-111] | 3 (Herbicidal rate of 40% or more and less than 70%)

tested on: windgrass; assay: Test Example 4: herbicidal effect by soil treatment (Table 19, symbol L); format: in vivo, windgrass (Apera spica-venti); conditions: amount of applied herbicide 320 g/ha
Outline: as §3

Compound | L: windgrass, herbicidal effect grade
CCCOc1ccc2c(-c3c(O)c(C)nn(C)c3=O)c(-c3ccccc3OCC)sc2c1 [3-103] | 5 (Herbicidal rate of 90% or more (almost completely withered))
C=CCOc1ccc2c(-c3c(O)c(C)nn(C)c3=O)c(-c3ccccc3OC)sc2c1 [3-111] | 0 (Herbicidal rate of 5% or less (almost no effect))

tested on: velvetleaf; assay: Test Example 4: herbicidal effect by soil treatment (Table 19, symbol M); format: in vivo, velvetleaf (Abutilon theophrasti); conditions: amount of applied herbicide 320 g/ha
Outline: as §3

Compound | M: velvetleaf, herbicidal effect grade
CCCOc1ccc2c(-c3c(O)c(C)nn(C)c3=O)c(-c3ccccc3OCC)sc2c1 [3-103] | 3 (Herbicidal rate of 40% or more and less than 70%)
C=CCOc1ccc2c(-c3c(O)c(C)nn(C)c3=O)c(-c3ccccc3OC)sc2c1 [3-111] | 3 (Herbicidal rate of 40% or more and less than 70%)

tested on: redroot pigweed; assay: Test Example 4: herbicidal effect by soil treatment (Table 19, symbol N); format: in vivo, redroot pigweed (Amaranthus retroflexus); conditions: amount of applied herbicide 320 g/ha
Outline: as §3

Compound | N: redroot pigweed, herbicidal effect grade
CCCOc1ccc2c(-c3c(O)c(C)nn(C)c3=O)c(-c3ccccc3OCC)sc2c1 [3-103] | 4 (Herbicidal rate of 70% or more and less than 90%)
C=CCOc1ccc2c(-c3c(O)c(C)nn(C)c3=O)c(-c3ccccc3OC)sc2c1 [3-111] | 5 (Herbicidal rate of 90% or more (almost completely withered))

tested on: chickweed; assay: Test Example 4: herbicidal effect by soil treatment (Table 19, symbol P); format: in vivo, common chickweed (Stellaria media); conditions: amount of applied herbicide 320 g/ha
Outline: as §3

Compound | P: chickweed, herbicidal effect grade
CCCOc1ccc2c(-c3c(O)c(C)nn(C)c3=O)c(-c3ccccc3OCC)sc2c1 [3-103] | 5 (Herbicidal rate of 90% or more (almost completely withered))
C=CCOc1ccc2c(-c3c(O)c(C)nn(C)c3=O)c(-c3ccccc3OC)sc2c1 [3-111] | 3 (Herbicidal rate of 40% or more and less than 70%)

tested on: persian speedwell; assay: Test Example 4: herbicidal effect by soil treatment (Table 19, symbol R); format: in vivo, Persian speedwell (Veronica persica); conditions: amount of applied herbicide 320 g/ha
Outline: as §3

Compound | R: persian speedwell, herbicidal effect grade
CCCOc1ccc2c(-c3c(O)c(C)nn(C)c3=O)c(-c3ccccc3OCC)sc2c1 [3-103] | 5 (Herbicidal rate of 90% or more (almost completely withered))
C=CCOc1ccc2c(-c3c(O)c(C)nn(C)c3=O)c(-c3ccccc3OC)sc2c1 [3-111] | 5 (Herbicidal rate of 90% or more (almost completely withered))

tested on: southern crabgrass; assay: Test Example 5: herbicidal effect by foliage application, plastic box (Table 20, symbol F); format: in vivo, southern crabgrass (Digitaria ciliaris); conditions: foliage application, 320 g/ha, three weeks after application
Outline: (§4)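 Plants were sown into sterilized diluvial soil under about 1.5 cm cover and kept in a greenhouse at 25° C. to 30° C. Fourteen days on, foliage received an even spray of the diluted emulsion. Herbicidal or crop effect was judged three weeks afterwards.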

Compound | F: southern crabgrass, herbicidal effect grade
CCCOc1ccc2c(-c3c(O)c(C)nn(C)c3=O)c(-c3ccccc3OCC)sc2c1 [3-103] | 5 (Herbicidal rate of 90% or more (almost completely withered))
C=CCOc1ccc2c(-c3c(O)c(C)nn(C)c3=O)c(-c3ccccc3OC)sc2c1 [3-111] | 5 (Herbicidal rate of 90% or more (almost completely withered))

tested on: green foxtail; assay: Test Example 5: herbicidal effect by foliage application, plastic box (Table 20, symbol G); format: in vivo, green foxtail (Setaria viridis); conditions: foliage application, 320 g/ha, three weeks after application
Outline: as §4

Compound | G: green foxtail, herbicidal effect grade
CCCOc1ccc2c(-c3c(O)c(C)nn(C)c3=O)c(-c3ccccc3OCC)sc2c1 [3-103] | 5 (Herbicidal rate of 90% or more (almost completely withered))
C=CCOc1ccc2c(-c3c(O)c(C)nn(C)c3=O)c(-c3ccccc3OC)sc2c1 [3-111] | 5 (Herbicidal rate of 90% or more (almost completely withered))

tested on: redroot pigweed; assay: Test Example 5: herbicidal effect by foliage application, plastic box (Table 20, symbol N); format: in vivo, redroot pigweed (Amaranthus retroflexus); conditions: foliage application, 320 g/ha, three weeks after application
Outline: as §4

Compound | N: redroot pigweed, herbicidal effect grade
CCCOc1ccc2c(-c3c(O)c(C)nn(C)c3=O)c(-c3ccccc3OCC)sc2c1 [3-103] | 5 (Herbicidal rate of 90% or more (almost completely withered))
C=CCOc1ccc2c(-c3c(O)c(C)nn(C)c3=O)c(-c3ccccc3OC)sc2c1 [3-111] | 5 (Herbicidal rate of 90% or more (almost completely withered))
